Tests used:
[1] = system: microbial populations in a nonalcoholic steatohepatitis (NASH) mouse model; assay: Microbiome study in NASH mouse model on AMLN diet (Example 4); assay type: in vivo, C57BL/6 mice
Excerpt: There were changes in the microbiome in a mice model using a high-fat diet after 4 weeks of treatment with and without administering DA orally. The high fat diet itself induced extensive changes in the microbial populations in all groups. Importantly though, there was a pronounced difference between the DA treatment group and the control group at week 4.
Classifications of the different organisms that changed in the control and treatment groups at 4 weeks and observed extensive changes in the primary or dominant phylum groups of bacteria, as well as on a family and genus level were made. […] The diversity at 4 weeks dropped over the study course in both control and treatment group due to dietary impact.
The genetic potential of treatment-induced changes in relation to predicted physiological and metabolic pathways were aligned with observed benefits of treatment with DA with regards to attenuating inflammation and metabolic syndrome. The majority of the pathways being impacted were directly related to a decrease in inflammation and are known to be beneficial to cardiovascular health and other conditions related to the metabolic syndrome in humans. Observations included: • Increased metabolism of unsaturated fatty acids • Increased metabolism of arachidonic acid • Increased metabolism of cofactors and vitamins • Increased lysine degradation • Increased glycolysis and gluconeogenesis • Increased phosphatidylinositol signaling • Decreased arginine and ornithine metabolism Below Changes from Phylum à Family à Genus Level
The effect of a small molecule oral TAS2R agonist (DA) was investigated on microbial populations in a nonalcoholic steatohepatitis (NASH) mouse model. Two groups of 4-week-old male C57BL/6 mice (20/group) were fed Amylin Liver NASH (AMLN) diet and received daily doses of ARD-101 (30 mg/mL in water) or vehicle (water) via intragastric gavage. DNA was isolated from fecal samples collected at week 0 and 4, and microbial ecology was evaluated using bTEFAP (bacterial tag-encoded FLX amplicon pyrosequencing). Operational taxonomic units were classified using BLAST against a curated NCBI database. Diversity within specific ecosystems and microbial community structures was analyzed with Qiime 2. Differences were determined by repeated measures ANOVA and post hoc pairwise comparisons using Tukey's test. Taxonomic classification data were evaluated with a dual hierarchal dendrogram.

[2] = system: mouse peritoneum macrophages; assay: LPS-stimulated mouse peritoneal macrophages, cytokine analysis (Example 5); assay type: cell-based, mice
Description: This example provides an in vivo study to determine the effect of DA on mouse peritoneum macrophages. Peritoneal exudates were obtained from Balb/c female mice by lavage 4 days after an intraperitoneal injection of 4 ml sterile 4% thioglycollate broth. After washing with RPMI 1640 medium, the cell suspensions were centrifuged at 800 g at 4° C. for 5 min. The red blood cells were eliminated by ACK buffer and the cells were washed and resuspended in RPMI 1640 supplemented with 10% inactivated FBS, 10 mM HEPES, 2 mM glutamine, and 100 U/ml penicillin-[…] streptomycin. The peritoneal macrophages were plated in 24 well tissue culture plate (2×10^5 cells/mL/well) at 37° C. in a 5% CO2 humidified atmosphere. Macrophages were precultured in serum-free RPMI 1640 medium for 24 h to reduce mitogenic effects. Macrophages were pretreated with various concentrations of DA for 1 h prior to LPS treatment and stimulated with LPS (100 ng/mL) for 24 h. Treatment groups were: [table]

[3] = AMLN diet mice, daily gavage, week 4, DA vs vehicle
[4] = treatment at 4 weeks versus baseline and control

For `CC(=O)[O-].CC[N+](CC)(CC(=O)Nc1c(C)cccc1C)Cc1ccccc1` [DA, denatonium acetate], which “Microbiome pathways for biosynthesis of unsaturated fatty acids” value ([1]; 4-week DA treatment) is on record?
Its value is “significant enrichment”.

What about the “Microbiome pathways for glycolysis and gluconeogenesis” value ([1]; 4-week DA treatment) of the same compound?
Its value is “significant enrichment”.

What about the “Microbiome pathways for lysine degradation” value ([1]; 4-week DA treatment) of the same compound?
The value was “significant enrichment”.

What about the “Microbiome pathways for metabolism of arachidonic acid” value ([1]; 4-week DA treatment) of the same compound?
Its value is “significant enrichment”.

And the “Microbiome pathways for metabolism of cofactors and vitamins” value ([1]; 4-week DA treatment)?
The value was “significant enrichment”.

And the Microbiome phosphatidylinositol signaling ([1]; 4-week DA treatment)?
The Microbiome phosphatidylinositol signaling was “significant enrichment”.

What about the “Microbiome signaling for arginine and ornithine metabolism” value ([1]; 4-week DA treatment) of the same compound?
Its value is “significantly decreased”.

What about the SCFAs in feces ([1]; AMLN diet mice, DA treatment) of the same compound?
Its SCFAs in feces is “mitigated the diet-induced decrease”.

And the “Proteobacteria (phylum) in fecal microbiome” value ([1]; AMLN diet mice, daily gavage (30 mg/mL in water), week 4, DA vs vehicle)?
Its value is “significant increases”.

What about the “Cyanobacteria (phylum) in fecal microbiome” value [1, 3] of the same compound?
The value was “significant increases”.

What about the “Deferribacteres (phylum) in fecal microbiome” value [1, 3] of the same compound?
The value was “significant decreases”.

And the “Firmicutes (phylum) in fecal microbiome” value [1, 3]?
Its value is “significant decreases”.

And the “Spirochetes (phylum) in fecal microbiome” value [1, 3]?
Its value is “significant decreases”.

And the “Verrucomicrobia (phylum) in fecal microbiome” value [1, 3]?
The value was “significant increases”.

What about the “Diversity within ecosystems and microbial communities” value ([1]; DA versus vehicle group at week 4, p<0.05) of the same compound?
Its value is “significantly less diversity”.

What about the “Barnesiella (genus) in microbiome” value [1, 4] of the same compound?
The value was “Significantly Decreased”.

And the “Brenneria (genus) in microbiome” value [1, 4]?
The value was “Significantly Increased”.

What about the “Candidatus soleaferrea (genus) in microbiome” value [1, 4] of the same compound?
Its value is “Significantly Decreased”.

What about the “Clostridium (genus) in microbiome” value [1, 4] of the same compound?
Its value is “Significantly Decreased”.

What about the “Dehalobacterium (genus) in microbiome” value [1, 4] of the same compound?
Its value is “Significantly Decreased”.

What about the “Dorea (genus) in microbiome” value [1, 4] of the same compound?
The value was “Significantly Decreased”.

And the “Erysipelatoclostridium (genus) in microbiome” value [1, 4]?
Its value is “Significantly Increased”.

What about the “Escherichia (genus) in microbiome” value [1, 4] of the same compound?
Its value is “Significantly Increased”.

What about the “Flavonifractor (genus) in microbiome” value [1, 4] of the same compound?
Its value is “Significantly Decreased”.

And the “Lachnoclostridium (genus) in microbiome” value [1, 4]?
Its value is “Significantly Decreased”.

What about the “Oscillibacter (genus) in microbiome” value [1, 4] of the same compound?
Its value is “Significantly Decreased”.

What about the “Oscillospira (genus) in microbiome” value [1, 4] of the same compound?
The value was “Significantly Decreased”.

What about the “Parabacteroides (genus) in microbiome” value [1, 4] of the same compound?
The value was “Significantly Increased”.

What about the “Peptoclostridium (genus) in microbiome” value [1, 4] of the same compound?
Its value is “Significantly Increased”.

What about the “Shigella (genus) in microbiome” value [1, 4] of the same compound?
Its value is “Significantly Increased”.

And the “Sutterella (genus) in microbiome” value [1, 4]?
Its value is “Significantly Increased”.

What about the “Bacteroidetes (phylum) in microbiome” value ([1]; week 4, not marked as significant) of the same compound?
The value was “decreased”.

And the “GM-CSF: Significance @24 hour LPS incubation” value ([2]; DA 1 μM)?
Its value is “No sig”.

And the “IFNγ: Significance @24 hour LPS incubation” value ([2]; DA 1 μM)?
Its value is “No sig”.

And the “IL-1α: Significance @24 hour LPS incubation” value ([2]; DA 1 μM)?
The value was “No sig”.

And the “IL-1β: Significance @24 hour LPS incubation” value ([2]; DA 1 μM)?
Its value is “No sig”.

What about the “IL-2: Significance @24 hour LPS incubation” value ([2]; DA 1 μM) of the same compound?
The value was “No sig”.

And the “IL-4: Significance @24 hour LPS incubation” value ([2]; DA 1 μM)?
The value was “No sig”.

And the “IL-6: Significance @24 hour LPS incubation” value ([2]; DA 1 μM)?
The value was “No sig”.

And the “IL-7: Significance @24 hour LPS incubation” value ([2]; DA 1 μM)?
The value was “No sig”.

And the “IL-10: Significance @24 hour LPS incubation” value ([2]; DA 1 μM)?
The value was “No sig”.

What about the “IL-12 (p70): Significance @24 hour LPS incubation” value ([2]; DA 1 μM) of the same compound?
Its value is “No sig”.

And the “IL-13: Significance @24 hour LPS incubation” value ([2]; DA 1 μM)?
Its value is “No sig”.

And the “IL-17A: Significance @24 hour LPS incubation” value ([2]; DA 1 μM)?
Its value is “No sig”.

What about the “KC/CXCL1: Significance @24 hour LPS incubation” value ([2]; DA 1 μM) of the same compound?
The value was “No sig”.

And the “LIX: Significance @24 hour LPS incubation” value ([2]; DA 1 μM)?
Its value is “No sig”.

What about the “MCP-1: Significance @24 hour LPS incubation” value ([2]; DA 1 μM) of the same compound?
The value was “No sig”.

What about the “MIP-2: Significance @24 hour LPS incubation” value ([2]; DA 1 μM) of the same compound?
The value was “No sig”.

What about the “TNF-α: Significance @24 hour LPS incubation” value ([2]; DA 1 μM) of the same compound?
Its value is “No sig”.

What about the “GM-CSF: Significance @24 hour LPS incubation” value ([2]; DA 10 μM) of the same compound?
The value was “no sig”.

And the “IFNγ: Significance @24 hour LPS incubation” value ([2]; DA 10 μM)?
The value was “no sig”.

And the “IL-1α: Significance @24 hour LPS incubation” value ([2]; DA 10 μM)?
The value was “no sig”.

And the “IL-1β: Significance @24 hour LPS incubation” value ([2]; DA 10 μM)?
Its value is “no sig”.

What about the “IL-2: Significance @24 hour LPS incubation” value ([2]; DA 10 μM) of the same compound?
Its value is “no sig”.

What about the “IL-4: Significance @24 hour LPS incubation” value ([2]; DA 10 μM) of the same compound?
The value was “no sig”.

What about the “IL-6: Significance @24 hour LPS incubation” value ([2]; DA 10 μM) of the same compound?
The value was “no sig”.

And the “IL-7: Significance @24 hour LPS incubation” value ([2]; DA 10 μM)?
Its value is “no sig”.

And the “IL-10: Significance @24 hour LPS incubation” value ([2]; DA 10 μM)?
The value was “no sig”.

And the “IL-12 (p70): Significance @24 hour LPS incubation” value ([2]; DA 10 μM)?
The value was “no sig”.

And the “IL-13: Significance @24 hour LPS incubation” value ([2]; DA 10 μM)?
The value was “no sig”.

And the “IL-17A: Significance @24 hour LPS incubation” value ([2]; DA 10 μM)?
Its value is “no sig”.

And the “KC/CXCL1: Significance @24 hour LPS incubation” value ([2]; DA 10 μM)?
The value was “no sig”.

And the “LIX: Significance @24 hour LPS incubation” value ([2]; DA 10 μM)?
The value was “no sig”.

And the “MCP-1: Significance @24 hour LPS incubation” value ([2]; DA 10 μM)?
The value was “no sig”.

What about the “MIP-2: Significance @24 hour LPS incubation” value ([2]; DA 10 μM) of the same compound?
Its value is “no sig”.

And the “TNF-α: Significance @24 hour LPS incubation” value ([2]; DA 10 μM)?
Its value is “no sig”.

What about the “GM-CSF: Significance @24 hour LPS incubation” value ([2]; DA 100 μM) of the same compound?
Its value is “no sig”.

What about the “IFNγ: Significance @24 hour LPS incubation” value ([2]; DA 100 μM) of the same compound?
The value was “no sig”.

And the “IL-1α: Significance @24 hour LPS incubation” value ([2]; DA 100 μM)?
Its value is “no sig”.

What about the “IL-1β: Significance @24 hour LPS incubation” value ([2]; DA 100 μM) of the same compound?
Its value is “no sig”.

What about the “IL-2: Significance @24 hour LPS incubation” value ([2]; DA 100 μM) of the same compound?
The value was “no sig”.

What about the “IL-4: Significance @24 hour LPS incubation” value ([2]; DA 100 μM) of the same compound?
The value was “no sig”.

What about the “IL-6: Significance @24 hour LPS incubation” value ([2]; DA 100 μM) of the same compound?
The value was “no sig”.

And the “IL-7: Significance @24 hour LPS incubation” value ([2]; DA 100 μM)?
The value was “no sig”.

What about the “IL-10: Significance @24 hour LPS incubation” value ([2]; DA 100 μM) of the same compound?
Its value is “no sig”.

And the “IL-12 (p70): Significance @24 hour LPS incubation” value ([2]; DA 100 μM)?
Its value is “no sig”.

And the “IL-13: Significance @24 hour LPS incubation” value ([2]; DA 100 μM)?
The value was “no sig”.

And the “IL-17A: Significance @24 hour LPS incubation” value ([2]; DA 100 μM)?
The value was “no sig”.

And the “KC/CXCL1: Significance @24 hour LPS incubation” value ([2]; DA 100 μM)?
The value was “no sig”.

And the “LIX: Significance @24 hour LPS incubation” value ([2]; DA 100 μM)?
The value was “no sig”.

What about the “MCP-1: Significance @24 hour LPS incubation” value ([2]; DA 100 μM) of the same compound?
Its value is “no sig”.

And the “MIP-2: Significance @24 hour LPS incubation” value ([2]; DA 100 μM)?
The value was “no sig”.

What about the “TNF-α: Significance @24 hour LPS incubation” value ([2]; DA 100 μM) of the same compound?
Its value is “no sig”.

— patent US20230096528A1, “Pharmaceutical Composition for Treatment or Prevention of Multiple Inflammatory disorders” (priority 2019, published 2023)
